# According to US20150258052A1, “METHODS OF USING FEXARAMINE AND AGENTS THAT INCREASE SYMPATHETIC NERVOUS SYSTEM ACTIVITY TO PROMOTE BROWNING OF WHITE ADIPOSE TISSUE” (Salk Institute for Biological Studies, priority 2014, published 2015):
# Tests used:
# [1] = system: brown adipose tissue (BAT); assay: Energy expenditure and brown adipose tissue (BAT) analysis in Fex-treated DIO mice; format: in vivo
# Procedure: Mice were fed HFD for 14 weeks and then administered vehicle or fexaramine (100 mg/kg) daily by oral administration for 5 weeks with HFD. Data represent the mean±STD. Statistical analysis was performed with the Student's t test (*p<0.05, **p<0.01).
# FIG. 6M is a bar chart showing the effect of fexaramine on respiratory exchange ratio (RER). Mice were fed on HFD for 14 weeks, and then administered daily oral injections of vehicle or fexaramine (100 mg/kg) for 5 weeks with HFD.
# FIG. 6N is a bar graph showing the effect of fexaramine administration on serum lactate concentrations. Mice were fed on HFD for 14 weeks, and then administered daily oral injections of vehicle or fexaramine (100 mg/kg) for 5 weeks with HFD. […] Data represent the mean±STD. Statistical analysis was performed with the Student's t test (*p<0.05, **p<0.01).
# (FIG. 6E). […] Gene expression analysis confirmed the induction of ERRγ, PGC-1α, and PGC-1β, as well as a number of their target genes involved in thermogenesis, mitochondrial biogenesis, and fatty acid oxidation in BAT (FIG. 6G).
# [2] = LC/MS quantification of serum fexaramine after PO or IP administration; format: in vivo, mice
# Procedure: FIG. 1D is a schematic diagram illustrating an experimental procedure used to evaluate fexaramine, where mice were treated with vehicle or fexaramine (100 mg/kg) via PO or IP injection, and LC/MS quantification of serum fexaramine was conducted five days later.
# FIG. 1E is a bar chart illustrating serum fexaramine concentrations after administration as described in FIG. 1D. Data represent mean values±STD. Statistical analysis was performed with the Student's t test (*p<0.05, **p<0.01).
# Upon exploration of the in vivo effects of fexaramine (Fex) administration, it was discovered that due to ineffectual absorption, oral (PO) and intraperitoneal (IP) drug delivery produced very different effects (FIGS. 1D and 1E).
# TGR5 null mice = assay: Fexaramine in HFD-fed TGR5-null mice; format: in vivo; settings: 100 mg/kg/day PO 5 weeks
# Procedure: HFD-fed TGR5-null mice were treated with vehicle or fexaramine (100 mg/kg os daily for 5 weeks with HFD, n=10). (A) Ileal FXR target gene expressions (B) Serum BA levels (C) Fasting glucose levels (D) Glucose tolerance test (E) Core body temperature (F) Oxygen consumption rate (G) Carbon dioxide production (H) Gene expression in BAT (I) Body weight curve (J) Body composition by MRI (K) Insulin Tolerance Test (L) Hepatic gene expression (M) Hepatic TG levels (N) and Gene expression in soleus of TGR5 knockout mice with and without fexaramine treatment. Data represent the mean±SD. Statistical analysis was performed with the Student's t test. *p<0.05, **p<0.01.
# To address this possibility, HFD-fed TGR5 null mice were chronically treated with Fex (100 mg/kg/day PO for 5 weeks). […] In particular, the anti-lipogenic effects of Fex in the liver appear to require TGR5 activation, as key hepatic lipogenic genes and liver triglyceride content were not affected by Fex treatment (FIGS. 11L, 11M).
# [3] = DIO mice, 100 mg/kg PO 5 weeks, listed as fexaramine, 100 mg/kg
smiles,measurement,setting,value
"COC(=O)/C=C/c1cccc(N(Cc2ccc(-c3ccc(N(C)C)cc3)cc2)C(=O)C2CCCCC2)c1 [Fex, fexaramine]","OXPHOS gene expression changes in inguinal, gonadal and brown adipose depots (RNA-sequencing)","[1]; DIO mice, 100 mg/kg PO 5 weeks",selectively enhance OXPHOS activity only in BAT
same,PKA activity in BAT,"[1]; DIO mice, 100 mg/kg PO 5 weeks",increased PKA activity
same,accumulation of lipid vesicles in BAT (histology),"[1]; DIO mice, 100 mg/kg PO 5 weeks",markedly reduced
same,ambulatory counts (activity),"[1]; DIO mice, 100 mg/kg PO 5 weeks",more active than control mice
same,carbon dioxide production (VCO2),"[1]; DIO mice, 100 mg/kg PO 5 weeks",exhaled more carbon dioxide
same,"gene expression of ERRγ, PGC-1α, PGC-1β and target genes in BAT","[1]; DIO mice, 100 mg/kg PO 5 weeks",induction
same,oxygen consumption (VO2),"[1]; DIO mice, 100 mg/kg PO 5 weeks",consistently higher oxygen consumption
same,phosphorylation level of p38 in BAT,"[1]; DIO mice, 100 mg/kg PO 5 weeks",increased the phosphorylation level of p38
same,serum lactate levels,"[1]; DIO mice, 100 mg/kg PO 5 weeks, 100 mg/kg",significantly reduced
same,respiratory exchange ratio (RER),[1]; [3],No changes were observed
same,serum lactate levels,[1]; [3],significantly decreased
same,food intake,"[1]; DIO mice, first week of treatment",not attributable to difference in food intake
same,DIO2 (downstream target of TGR5) in BAT,[1]; oral Fex,induce DIO2
same,serum Fex level after PO relative to IP levels,"[2]; acute 100 mg/kg, PO compared to IP",10%
same,concentration at 5 days,"[2]; mouse, serum, PO 100 mg/kg, read-out: serum levels of Fex after PO administration",< 25 nM
same,FXR target genes in ileum including FGF15,TGR5 null mice,induced multiple FXR target genes
same,core body temperature and metabolic rate,TGR5 null mice,somewhat blunted increases
same,fasting glucose levels and glucose tolerance,TGR5 null mice,moderate improvements
same,key hepatic lipogenic genes and liver triglyceride content,TGR5 null mice,not affected
same,serum BA levels,TGR5 null mice,lowered serum BA levels
same,weight gain or insulin sensitivity,TGR5 null mice,no significant changes
